Laboratory results as given in patent publication US11304892B2, “Alteromonas macleodii Dow02-2 and its metabolites for improving skin moisturization” (TCI Co., Ltd., priority 2018, dated 2022).

Legend:
Format in all cases: cell-based
Details in all cases: HPEK-50 cells, 10 μg/ml, 6 hours, 37° C.
KRT14 gene = experiment: qPCR relative expression of KRT14 gene in human epidermal keratinocytes HPEK-50
Procedure: (§1) The human epidermal keratinocytes HPEK-50 were cultured with a keratinocyte-SFM at 37° C. for 24 hours. Thereafter, the cells were divided into eight groups and respectively cultured with the following media at 37° C. for 6 hours: • 1. Control group: keratinocyte-SFM; • 2. “Supernatant” group: keratinocyte-SFM that was additionally added with 62.5 μg/ml of the supernatant obtained from [Preparation Example] B; • 3. “Fraction 1” group: keratinocyte-SFM that was additionally added with 62.5 μg/ml of the Fraction 1 obtained from [Preparation Example] C-1; • 4. “Fraction 2” group: keratinocyte-SFM that was additionally added with 62.5 μg/ml of the Fraction 2 obtained from [Preparation Example] C-1; • 5. […]
(§2) To investigate the effects of metabolites of Alteromonas macleodii Dow02-2 and 2-hydroxy-3-methylbutyric acid on moisturizing skin, inventors of the present invention collected the cells in each group of Example 1-1. […] Thereafter, the cDNA was subjected to a quantitative polymerase chain reaction (qPCR) by using a KAPA CYBR FAST qPCR kit (purchased from KAPA Biosystems) and ABI StepOne Plus™ System to determine the expression levels of moisturizing-related genes such as TGM1 gene, KRT1 gene, KRT10 gene, KRT14 gene, FLG gene, GBA gene and HAS3 gene in the cells of each group. […]

HAS3 gene = experiment: qPCR relative expression of HAS3 gene in human epidermal keratinocytes HPEK-50
Procedure: as §1, §2

FLG gene = experiment: qPCR relative expression of FLG gene in human epidermal keratinocytes HPEK-50
Procedure: as §1, §2

KRT10 gene = experiment: qPCR relative expression of KRT10 gene in human epidermal keratinocytes HPEK-50
Procedure: as §1, §2

KRT1 gene = experiment: qPCR relative expression of KRT1 gene in human epidermal keratinocytes HPEK-50
Procedure: as §1, §2

TGM1 gene = experiment: qPCR relative expression of TGM1 gene in human epidermal keratinocytes HPEK-50
Procedure: as §1, §2

GBA gene = experiment: qPCR relative expression of GBA gene in human epidermal keratinocytes HPEK-50
Procedure: as §1, §2

CC(C)C(O)C(=O)O (stereo not shown) [2-hydroxy-3-methylbutyric acid]
increase of expression level of KRT14 gene in comparison with the control group (KRT14 gene): 43%
increase of expression level of HAS3 gene in comparison with the control group (HAS3 gene): 97%
increase of expression level of FLG gene in comparison with the control group (FLG gene): 41%
increase of expression level of KRT10 gene in comparison with the control group (KRT10 gene): 158%
increase of expression level of KRT1 gene in comparison with the control group (KRT1 gene): 29%
increase of expression level of TGM1 gene in comparison with the control group (TGM1 gene): 26%
increase of expression level of GBA gene in comparison with the control group (GBA gene): 49%
